Assay results from paper PMC2876208 (Cancer, 2010).
Counter-ions that a name gives are not always drawn.

Key:
CML = settings: newly diagnosed patients with CML-CP; cited from earlier work
[1] = Phase 1 dose-escalation study: safety, adverse events; format: in vivo
Ph-positive CML or ALL = test: Phase 1 study: cytogenetic and hematologic response; format: in vivo, human
[2] = Phase 1 study: pharmacokinetics in patients; format: in vivo, human; settings: for half-life: Mean half-life
[3] = cited from earlier work
Bcr-Abl F317L = settings: cited from earlier work
Bcr-Abl F317V = settings: cited from earlier work
Lyn kinase = settings: cited from earlier work
[4] = biological target: other Src-family member kinases; settings: cited from earlier work
[5] = 30 mg/kg dose level, 4-week; ref data on file, 24; cited from earlier work
unmutated Bcr-Abl = settings: cited from earlier work

In the case of `Cc1ccc(NC(=O)c2ccc(CN3CCN(C)CC3)cc2)cc1Nc1nccc(-c2cccnc2)n1` [imatinib, imatinib mesylate], the “Estimated 5 to 7-year survival rates” value (CML) is listed as “over 90%”.

With `Cc1ccc(NC(=O)c2ccc(CN3CC[C@H](N(C)C)C3)c(C(F)(F)F)c2)cc1Nc1nccc(-c2cncnc2)n1` [INNO-406] the “Adverse events, NCI category infection” value ([1]; % of patients, N = 56) was 33.9%, the “Deaths since beginning treatment” value ([1]; all related to leukemia progression) was “Five” and the “Adverse events, NCI category blood/bone marrow” value ([1]; human, in vivo) was 25.0%. For the same compound, the “Adverse events, NCI category cardiac general” value ([1]; human, in vivo) was 12.5%, the “Adverse events, NCI category constitutional symptoms” value ([1]; human, in vivo) was 48.2% and the “Adverse events, NCI category dermatology/skin” value ([1]; human, in vivo) was 28.6%. The “Adverse events, NCI category gastrointestinal” value ([1]; human, in vivo) was 64.3%, the “Adverse events, NCI category hemorrhage/bleeding” value ([1]; human, in vivo) was 10.7% and the “Adverse events, NCI category lymphatics” value ([1]; human, in vivo) was 25.0%. The “Adverse events, NCI category metabolic/laboratory” value ([1]; human, in vivo) was 73.2%, the “Adverse events, NCI category musculoskeletal/soft tissue” value ([1]; human, in vivo) was 10.7% and the “Adverse events, NCI category neurology” value ([1]; human, in vivo) was 23.2%. The “Adverse events, NCI category pain” value ([1]; human, in vivo) was 58.9%, the “Adverse events, NCI category pulmonary/upper respiratory” value ([1]; human, in vivo) was 17.9% and the “Drug-related acute renal failure” value ([1]; human, in vivo) was 2 (4) No. (%). For the same compound, the Drug-related elevated creatinine ([1]; human, in vivo) was 1 (2) No. (%), the Drug-related hypertension ([1]; human, in vivo) was 1 (2) No. (%) and the Drug-related hyperuricemia ([1]; human, in vivo) was 1 (2) No. (%). For the same compound, the “Drug-related increased ALT” value ([1]; human, in vivo) was 9 (16) No. (%), the “Drug-related increased GGT” value ([1]; human, in vivo) was 2 (4) No. (%) and the Drug-related increased bilirubin ([1]; human, in vivo) was 2 (4) No. (%). The Drug-related intrahepatic cholestasis ([1]; human, in vivo) was 1 (2) No. (%), the “Drug-related prolonged QTc interval” value ([1]; human, in vivo) was 1 (2) No. (%) and the Drug-related thrombocytopenia ([1]; human, in vivo) was 1 (2) No. (%). The “Grade 3 thrombocytopenia, drug- and non-drug-related” value ([1]; human, in vivo) was 2 patients, the “Grade 4 thrombocytopenia, drug- and non-drug-related” value ([1]; human, in vivo) was 3 patients and the “QTc >500 msec” value ([1]; human, in vivo) was 1 patient. The “QTcB increased to grade 2” value ([1]; human, in vivo) was 4 patients, the “QTcF increased to grade 2” value ([1]; human, in vivo) was 1 patient and the “Pleural or pericardial effusions” value ([1]; in vivo) was “No cases”. The “Recommended phase 2 dose based on DLT and MTD” value ([1]; orally BID) was 240 mg, the “Minimal-Minor Cytogenetic Response” value (Ph-positive CML or ALL; 60 mg QD, N = 3) was 1 (33) n (%) and the “Complete Cytogenetic Response” value (Ph-positive CML or ALL; 120 mg BID, N = 6) was 1 (17) n (%). For the same compound, the “Complete Cytogenetic Response” value (Ph-positive CML or ALL; 120 mg QD, N = 6) was 1 (17) n (%), the “Complete Cytogenetic Response” value (Ph-positive CML or ALL; 240 mg BID, N = 17) was 1 (6) n (%) and the “Partial Cytogenetic Response” value (Ph-positive CML or ALL; 240 mg BID, N = 17) was 2 (12) n (%). The “Minimal-Minor Cytogenetic Response” value (Ph-positive CML or ALL; 360 mg BID, N = 7) was 1 (14) n (%), the “Partial Cytogenetic Response” value (Ph-positive CML or ALL; 480 mg BID, N = 5) was 1 (20) n (%) and the “Response in patients with T315I mutations” value (Ph-positive CML or ALL; 4 patients with T315I mutations) was “None”. The “Complete Cytogenetic Response” value (Ph-positive CML or ALL; Total, all doses, N = 56) was 3 (5) n (%), the “Minimal-Minor Cytogenetic Response” value (Ph-positive CML or ALL; Total, all doses, N = 56) was 2 (4) n (%) and the “Partial Cytogenetic Response” value (Ph-positive CML or ALL; Total, all doses, N = 56) was 3 (5) n (%). The “Complete and partial hematologic responses” value (Ph-positive CML or ALL; all doses) was 3 patients, the “Major cytogenetic response rate” value (Ph-positive CML or ALL; all patients enrolled (6 of 56 patients)) was 11% and the Major cytogenetic responses (Ph-positive CML or ALL; patients treated with doses of 240 mg BID or greater) was 4. For the same compound, the Responses (Ph-positive CML or ALL; patients with CML-AP, CML-BP, or Ph-positive ALL) was “No responses”, the “Major cytogenetic response rate” value (Ph-positive CML or ALL; patients with CML-CP (6 of 31 patients)) was 19% and the Major cytogenetic responses (Ph-positive CML or ALL; patients with CML-CP, all doses) was 6 patients. The “Mean time to achieve peak concentration” value ([2]; 240 mg BID cohort, SD = 0.5) was 1.3 h, the “Mean (SD) accumulation factor” value ([2]; BID dosing) was 2.73 (4.96) and the Accumulation ([2]; day 15, 360 and 480 mg BID cohorts) was “accumulation of INNO-406 was observed”. The “Dose proportionality of Cmax and AUC” value ([2]; entire study population, for AUC not demonstrable with BID dosing) was “dose proportional”, the Cmax ([2]; human, in vivo, oral, 240 mg) was 487 ng/mL and the half-life ([2]; human, in vivo, oral, BID dosing, day 1, SD 0.817) was 1.99 h. For the same compound, the half-life ([2]; human, in vivo, oral, BID dosing, day 15, SD 0.751) was 2.28 h, the “In vivo potency relative to imatinib” value [3] was “at least 10 times” and the “Sensitivity of mutation in vitro” value (Bcr-Abl F317L) was “sensitive”. For the same compound, the “Sensitivity of mutation in vitro” value (Bcr-Abl F317V) was “sensitive”, the Kinase activity (Lyn kinase) was “specific Lyn kinase activity” and the Kinase activity [4] was “no or limited activity”. The Deaths [5] was “no deaths occurred” and the “Inhibition of autophosphorylation relative to imatinib” value (unmutated Bcr-Abl) was “more potently inhibited”.
